# Results reported in ChEMBL document CHEMBL1201862, “PubChem BioAssay data set” (2004).
#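 48-hour exposure; five concentrations; linearly interpolated endpoints. At the GI50, growth is halved.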 Calls of active or inactive are those of the source. Rule as the data show it: active = GI50 up to about 1.1 µM and inactive = higher.
# Tests used:
# Assay in all cases: NCI-60 cell line screen, 48 h
# IGROV-1 = tested on: IGROV-1
# NCI-H522 = tested on: NCI-H522
# OVCAR-3 = tested on: OVCAR-3
# MDA-MB-231 = tested on: MDA-MB-231
# A549 = tested on: A549
# NCI-H226 = tested on: NCI-H226
# MCF7 = tested on: MCF7
# UO-31 = tested on: UO-31
# PC-3 = tested on: PC-3
# ACHN = tested on: ACHN
# OVCAR-5 = tested on: OVCAR-5
# Malme-3M = tested on: Malme-3M
# HCT-116 = tested on: HCT-116
# T47D = tested on: T47D
# LOX IMVI = tested on: LOX IMVI
# SF-539 = tested on: SF-539
# MDA-MB-435 = tested on: MDA-MB-435
# SF-268 = tested on: SF-268
# MDA-N = tested on: MDA-N
# UACC-257 = tested on: UACC-257
# SW-620 = tested on: SW-620
# DU-145 = tested on: DU-145
# 786-0 = tested on: 786-0
# BT-549 = tested on: BT-549
# SK-MEL-28 = tested on: SK-MEL-28
# CAKI-1 = tested on: CAKI-1
# MOLT-4 = tested on: MOLT-4
# OVCAR-8 = tested on: OVCAR-8
# NCI-H460 = tested on: NCI-H460
# COLO 205 = tested on: COLO 205
# KM12 = tested on: KM12
# NCI-H23 = tested on: NCI-H23
# HCC 2998 = tested on: HCC 2998
# RXF 393 = tested on: RXF 393
# SF-295 = tested on: SF-295
# SR = tested on: SR
# Hs-578T = tested on: Hs-578T
# HCT-15 = tested on: HCT-15
# HOP-62 = tested on: HOP-62
# SK-OV-3 = tested on: SK-OV-3
# HL-60 = tested on: HL-60
# UACC-62 = tested on: UACC-62
# RPMI-8226 = tested on: RPMI-8226
# TK-10 = tested on: TK-10
# SK-MEL-5 = tested on: SK-MEL-5
# SN12C = tested on: SN12C
# NCI/ADR-RES = tested on: NCI/ADR-RES
# SNB-75 = tested on: SNB-75
# CCRF-CEM = tested on: CCRF-CEM
# SNB-19 = tested on: SNB-19
# U-251 = tested on: U-251
# HT-29 = tested on: HT-29
# K562 = tested on: K562
# SK-MEL-2 = tested on: SK-MEL-2
# A498 = tested on: A498
# HOP-92 = tested on: HOP-92
# M14 = tested on: M14
# EKVX = tested on: EKVX
# OVCAR-4 = tested on: OVCAR-4
smiles,measurement,setting,value
Nc1nc(S)nc2snnc12,GI50,IGROV-1,> 100 µM (inactive)
same,GI50,NCI-H522,> 100 µM (inactive)
same,GI50,OVCAR-3,> 100 µM (inactive)
same,GI50,MDA-MB-231,> 100 µM (inactive)
same,GI50,A549,> 100 µM (inactive)
same,GI50,NCI-H226,> 100 µM (inactive)
same,GI50,MCF7,> 100 µM (inactive)
same,GI50,UO-31,> 100 µM (inactive)
same,GI50,PC-3,> 100 µM (inactive)
same,GI50,ACHN,> 100 µM (inactive)
same,GI50,OVCAR-5,> 100 µM (inactive)
same,GI50,Malme-3M,> 100 µM (inactive)
same,GI50,HCT-116,> 100 µM (inactive)
same,GI50,T47D,> 100 µM (inactive)
same,GI50,LOX IMVI,> 100 µM (inactive)
same,GI50,SF-539,> 100 µM (inactive)
same,GI50,MDA-MB-435,> 100 µM (inactive)
same,GI50,SF-268,> 100 µM (inactive)
same,GI50,MDA-N,> 100 µM (inactive)
same,GI50,UACC-257,> 100 µM (inactive)
same,GI50,SW-620,> 100 µM (inactive)
same,GI50,DU-145,> 100 µM (inactive)
same,GI50,786-0,> 100 µM (inactive)
same,GI50,BT-549,> 100 µM (inactive)
same,GI50,SK-MEL-28,> 100 µM (inactive)
same,GI50,CAKI-1,> 100 µM (inactive)
same,GI50,MOLT-4,> 100 µM (inactive)
same,GI50,OVCAR-8,> 100 µM (inactive)
same,GI50,NCI-H460,> 100 µM (inactive)
same,GI50,COLO 205,> 100 µM (inactive)
same,GI50,KM12,> 100 µM (inactive)
same,GI50,NCI-H23,> 100 µM (inactive)
same,GI50,HCC 2998,> 100 µM (inactive)
same,GI50,RXF 393,> 100 µM (inactive)
same,GI50,SF-295,> 100 µM (inactive)
same,GI50,SR,> 100 µM (inactive)
same,GI50,Hs-578T,> 100 µM (inactive)
same,GI50,HCT-15,> 100 µM
same,GI50,HOP-62,> 100 µM (inactive)
same,GI50,SK-OV-3,> 100 µM (inactive)
same,GI50,HL-60,> 100 µM (inactive)
same,GI50,UACC-62,> 100 µM (inactive)
same,GI50,RPMI-8226,> 100 µM (inactive)
same,GI50,TK-10,> 100 µM (inactive)
same,GI50,SK-MEL-5,> 100 µM (inactive)
same,GI50,SN12C,> 100 µM (inactive)
same,GI50,NCI/ADR-RES,> 100 µM (inactive)
same,GI50,SNB-75,> 100 µM (inactive)
same,GI50,CCRF-CEM,> 100 µM (inactive)
same,GI50,SNB-19,> 100 µM (inactive)
same,GI50,U-251,> 10 µM (inactive)
same,GI50,HT-29,> 100 µM (inactive)
same,GI50,K562,> 100 µM (inactive)
same,GI50,SK-MEL-2,> 100 µM (inactive)
same,GI50,A498,> 100 µM (inactive)
same,GI50,HOP-92,> 100 µM (inactive)
COc1ccc(C(C)NNC(=O)c2cc[n+]([BH2-]C#N)cc2)c(OC)c1 (configuration not stated),GI50,M14,> 100 µM (inactive)
same,GI50,IGROV-1,> 100 µM (inactive)
same,GI50,NCI-H522,> 100 µM (inactive)
same,GI50,OVCAR-3,> 100 µM (inactive)
same,GI50,MDA-MB-231,> 100 µM (inactive)
same,GI50,A549,> 100 µM (inactive)
same,GI50,NCI-H226,> 100 µM (inactive)
same,GI50,MCF7,> 100 µM (inactive)
same,GI50,UO-31,> 100 µM (inactive)
same,GI50,PC-3,> 100 µM (inactive)
same,GI50,ACHN,> 100 µM (inactive)
same,GI50,OVCAR-5,> 100 µM (inactive)
same,GI50,Malme-3M,> 100 µM (inactive)
same,GI50,T47D,> 100 µM (inactive)
same,GI50,LOX IMVI,> 100 µM (inactive)
same,GI50,SF-539,> 100 µM (inactive)
same,GI50,MDA-MB-435,> 100 µM (inactive)
same,GI50,SF-268,> 100 µM (inactive)
same,GI50,MDA-N,> 100 µM (inactive)
same,GI50,UACC-257,> 100 µM (inactive)
same,GI50,SW-620,> 100 µM (inactive)
same,GI50,DU-145,> 100 µM (inactive)
same,GI50,786-0,> 100 µM (inactive)
same,GI50,BT-549,> 100 µM (inactive)
same,GI50,SK-MEL-28,> 100 µM (inactive)
same,GI50,CAKI-1,> 100 µM (inactive)
same,GI50,MOLT-4,> 100 µM (inactive)
same,GI50,EKVX,> 100 µM (inactive)
same,GI50,OVCAR-8,> 100 µM (inactive)
same,GI50,NCI-H460,> 100 µM (inactive)
same,GI50,COLO 205,> 100 µM (inactive)
same,GI50,KM12,> 100 µM (inactive)
same,GI50,HCC 2998,> 100 µM (inactive)
same,GI50,RXF 393,> 100 µM (inactive)
same,GI50,SF-295,> 100 µM (inactive)
same,GI50,SR,> 100 µM (inactive)
same,GI50,Hs-578T,> 100 µM (inactive)
same,GI50,HCT-15,> 100 µM
same,GI50,HL-60,> 100 µM (inactive)
same,GI50,UACC-62,> 100 µM (inactive)
same,GI50,RPMI-8226,> 100 µM (inactive)
same,GI50,TK-10,> 100 µM (inactive)
same,GI50,SK-MEL-5,> 100 µM (inactive)
same,GI50,SN12C,> 100 µM (inactive)
same,GI50,NCI/ADR-RES,> 100 µM (inactive)
same,GI50,SNB-75,> 100 µM (inactive)
same,GI50,CCRF-CEM,> 100 µM (inactive)
same,GI50,SNB-19,> 100 µM (inactive)
same,GI50,U-251,> 100 µM (inactive)
same,GI50,K562,> 100 µM (inactive)
same,GI50,SK-MEL-2,> 100 µM (inactive)
same,GI50,A498,> 100 µM (inactive)
same,GI50,OVCAR-4,69.5 µM (inactive)
same,GI50,HOP-92,> 100 µM (inactive)
COc1cc2c(cc1OC)C(=O)/C(=C/c1cc(C)c(O)c(C)c1)C2,GI50,M14,< 0.01 µM (active)
same,GI50,IGROV-1,< 0.0166 µM (active)
same,GI50,NCI-H522,< 0.01 µM (active)
same,GI50,OVCAR-3,0.0115 µM (active)
same,GI50,MDA-MB-231,0.0171 µM (active)
same,GI50,A549,< 0.0165 µM (active)
same,GI50,NCI-H226,23.8 µM (inactive)
same,GI50,MCF7,< 0.0148 µM (active)
same,GI50,UO-31,> 100 µM (inactive)
same,GI50,PC-3,< 0.01 µM (active)
same,GI50,ACHN,0.0603 µM (active)
same,GI50,OVCAR-5,1.63 µM (inactive)
same,GI50,Malme-3M,< 0.01 µM (active)
same,GI50,HCT-116,< 0.0112 µM (active)
same,GI50,T47D,> 100 µM (inactive)
same,GI50,LOX IMVI,< 0.0259 µM (active)
same,GI50,SF-539,< 0.01 µM (active)
same,GI50,MDA-MB-435,< 0.01 µM (active)
same,GI50,SF-268,< 0.0143 µM (active)
same,GI50,MDA-N,< 0.01 µM (active)
same,GI50,UACC-257,0.755 µM (active)
same,GI50,SW-620,< 0.0106 µM (active)
same,GI50,DU-145,< 0.01 µM (active)
same,GI50,786-0,< 0.0184 µM (active)
same,GI50,BT-549,> 100 µM (inactive)
same,GI50,SK-MEL-28,> 75.7 µM (inactive)
same,GI50,CAKI-1,0.0803 µM (active)
same,GI50,MOLT-4,< 0.01 µM (active)
same,GI50,EKVX,< 0.01 µM (active)
same,GI50,NCI-H460,< 0.01 µM (active)
same,GI50,COLO 205,5.02 µM (inactive)
same,GI50,KM12,< 0.01 µM (active)
same,GI50,NCI-H23,< 0.01 µM (active)
same,GI50,HCC 2998,< 0.0407 µM (active)
same,GI50,RXF 393,< 0.0504 µM (active)
same,GI50,SF-295,< 0.018 µM (active)
same,GI50,SR,< 0.01 µM (active)
same,GI50,Hs-578T,< 0.01 µM (active)
same,GI50,HCT-15,< 0.01 µM
same,GI50,HOP-62,< 0.01 µM (active)
same,GI50,SK-OV-3,< 0.01 µM (active)
same,GI50,HL-60,< 0.01 µM (active)
same,GI50,UACC-62,< 0.0168 µM (active)
same,GI50,RPMI-8226,< 0.01 µM (active)
same,GI50,TK-10,> 76.7 µM (inactive)
same,GI50,SK-MEL-5,< 0.01 µM (active)
same,GI50,SN12C,0.0244 µM (active)
same,GI50,NCI/ADR-RES,0.403 µM (active)
same,GI50,SNB-75,< 0.01 µM (active)
same,GI50,CCRF-CEM,< 0.01 µM (active)
same,GI50,U-251,< 0.01 µM (active)
same,GI50,HT-29,5.19 µM (inactive)
same,GI50,K562,< 0.01 µM (active)
same,GI50,SK-MEL-2,< 0.01 µM (active)
same,GI50,A498,> 21.2 µM (inactive)
same,GI50,OVCAR-4,> 100 µM (inactive)
same,GI50,HOP-92,> 100 µM (inactive)
